Legend:
Test in all cases: relative viability (nuclei count vs DMSO), 5 days (fraction); higher = more cells survive
Sunitinib + Olaparib = compound: CCN(CC)CCNC(=O)c1c(C)[nH]c(/C=C2\C(=O)Nc3ccc(F)cc32)c1C [Sunitinib] + O=C(c1cc(Cc2n[nH]c(=O)c3ccccc23)ccc1F)N1CCN(C(=O)C2CC2)CC1 [Olaparib] (partner 8 µM)
How it was run: (§1)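 Five library-drug doses in √10 steps were combined with a fixed anchor-drug dose, or a single drug was given alone, by pin tool to lung cancer cell lines in 1536-well plates the day after seeding. Nuclei were stained and counted after 5 days. Relative viability is the nuclei count in treated wells over that in vehicle wells, taken as the median of duplicate plates.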

Sunitinib + Decitabine = compound: CCN(CC)CCNC(=O)c1c(C)[nH]c(/C=C2\C(=O)Nc3ccc(F)cc32)c1C [Sunitinib] + Nc1ncn([C@H]2C[C@H](O)[C@@H](CO)O2)c(=O)n1 [Decitabine] (partner 2 µM)
How it was run: as §1

Sunitinib + Luminespib = compound: CCN(CC)CCNC(=O)c1c(C)[nH]c(/C=C2\C(=O)Nc3ccc(F)cc32)c1C [Sunitinib] + CCNC(=O)c1noc(-c2cc(C(C)C)c(O)cc2O)c1-c1ccc(CN2CCOCC2)cc1 [Luminespib] (partner 0.01 µM)
How it was run: as §1

Sunitinib + Lapatinib = compound: CCN(CC)CCNC(=O)c1c(C)[nH]c(/C=C2\C(=O)Nc3ccc(F)cc32)c1C [Sunitinib] + CS(=O)(=O)CCNCc1ccc(-c2ccc3ncnc(Nc4ccc(OCc5cccc(F)c5)c(Cl)c4)c3c2)o1 [Lapatinib] (partner 2 µM)
How it was run: as §1

Cell Line | relative viability (Sunitinib + Olaparib; first compound 0.02 µM) | relative viability (Sunitinib + Olaparib; first compound 0.06325 µM) | relative viability (Sunitinib + Olaparib; first compound 0.2 µM) | relative viability (Sunitinib + Olaparib; first compound 0.6325 µM) | relative viability (Sunitinib + Olaparib; first compound 2 µM) | relative viability (Sunitinib + Decitabine; first compound 0.02 µM) | relative viability (Sunitinib + Decitabine; first compound 0.06325 µM) | relative viability (Sunitinib + Decitabine; first compound 0.2 µM) | relative viability (Sunitinib + Decitabine; first compound 0.6325 µM) | relative viability (Sunitinib + Decitabine; first compound 2 µM) | relative viability (Sunitinib + Luminespib; first compound 0.02 µM) | relative viability (Sunitinib + Luminespib; first compound 0.06325 µM) | relative viability (Sunitinib + Luminespib; first compound 0.2 µM) | relative viability (Sunitinib + Luminespib; first compound 0.6325 µM) | relative viability (Sunitinib + Luminespib; first compound 2 µM) | relative viability (Sunitinib + Lapatinib; first compound 0.02 µM) | relative viability (Sunitinib + Lapatinib; first compound 0.06325 µM) | relative viability (Sunitinib + Lapatinib; first compound 0.2 µM) | relative viability (Sunitinib + Lapatinib; first compound 0.6325 µM) | relative viability (Sunitinib + Lapatinib; first compound 2 µM)
NCI-H647 | 0.536 | 0.517 | 0.655 | 0.639 | 0.396 | 0.329 | 0.47 | 0.512 | 0.537 | 0.41 | 0.232 | 0.143 | 0.131 | 0.137 | 0.154 | 0.939 | 1.26 | 1.19 | 1.13 | 0.913
NCI-H1944 | 0.39 | 0.414 | 0.473 | 0.43 | 0.447 | 0.477 | 0.415 | 0.466 | 0.42 | 0.449 | 0.738 | 0.722 | 0.752 | 0.769 | 0.638 | 0.648 | 0.932 | 0.997 | 0.849 | 0.964
NCI-H3122 | 0.636 | 0.692 | 0.657 | 0.606 | 0.585 | 0.412 | 0.439 | 0.542 | 0.364 | 0.453 | 0.0868 | 0.127 | 0.0866 | 0.0951 | 0.0797 | 0.907 | 0.985 | 1.04 |  | 0.992
HCC-15 | 0.762 | 0.742 | 0.807 | 0.768 | 0.625 | 0.639 | 0.829 | 0.708 | 0.671 | 0.677 | 0.251 | 0.278 | 0.347 | 0.255 | 0.227 | 0.855 | 0.9 | 0.91 | 0.826 | 0.829
NCI-H1993 | 1.02 | 0.979 | 1.12 | 0.844 | 1.03 | 0.514 | 0.632 | 0.605 | 0.577 | 0.61 | 0.741 | 0.941 | 0.866 | 0.654 | 0.79 | 0.835 | 0.889 | 0.834 | 0.836 | 0.849
NCI-H1755 | 0.859 | 0.881 | 0.93 | 0.961 | 0.91 | 0.69 |  | 0.663 | 0.692 | 0.76 | 0.435 | 0.497 | 0.499 | 0.441 | 0.334 | 1.04 | 1.08 | 1.09 | 1.07 | 1.02
NCI-H2342 | 0.48 | 0.456 | 0.527 | 0.475 | 0.414 | 0.751 | 0.784 | 0.708 | 0.819 | 0.718 | 0.658 | 0.67 | 0.868 | 0.778 | 0.838 |  |  |  |  | 
COR-L 105 | 0.591 | 0.695 | 0.881 | 0.651 | 0.837 | 0.692 | 0.734 | 0.663 | 0.649 | 0.607 | 0.665 | 0.706 | 0.744 | 0.914 | 0.686 | 0.336 | 0.459 | 0.358 | 0.36 | 0.372
SK-LU-1 | 0.422 | 0.494 | 0.555 | 0.491 | 0.532 | 0.571 | 0.688 | 0.635 | 0.651 | 0.603 | 0.21 | 0.187 | 0.21 | 0.216 | 0.2 | 0.942 | 0.853 | 1.06 | 1.02 | 0.809
NCI-H2228 | 0.608 | 0.55 | 0.98 | 0.772 | 0.544 |  |  |  |  |  | 0.138 | 0.145 | 0.148 | 0.177 | 0.114 | 1.04 | 1.23 | 1.13 | 1.16 | 
NCI-H1395 | 0.441 | 0.438 | 0.478 | 0.484 | 0.482 | 0.712 | 0.659 | 0.721 | 0.72 | 0.639 | 0.72 | 0.375 | 0.723 | 0.706 | 0.602 | 0.947 | 1.17 | 1.07 | 1.16 | 1
NCI-H1648 | 1.11 | 0.583 |  | 0.751 | 0.707 | 0.46 | 0.647 | 0.633 | 0.55 | 0.681 |  |  |  |  |  |  |  |  |  | 
NCI-H650 | 0.399 | 0.405 | 0.39 | 0.445 | 0.384 | 0.341 | 0.291 | 0.321 | 0.325 | 0.321 | 0.914 | 0.83 | 0.766 | 0.803 | 0.716 | 1.09 | 1.33 | 0.807 | 0.925 | 0.964
A549 | 0.282 | 0.326 | 0.348 | 0.484 | 0.383 | 0.248 | 0.293 | 0.252 | 0.272 | 0.306 |  |  |  |  |  | 1.03 |  | 1.21 | 1.03 | 
LC-2-ad | 0.68 | 0.746 | 0.749 | 0.729 | 0.825 | 0.788 | 0.777 | 0.82 | 0.728 | 0.714 | 1.09 | 1.06 | 1.18 | 1.04 | 0.913 | 0.916 | 1.11 | 1.07 | 0.904 | 0.581
